Source: US11685734B2, “ATM kinase inhibitors and compositions and methods of use thereof” (CHDI Foundation, Inc., priority 2019, dated 2023)

What was measured:
[1] = target: cellular ATM activity (Homo sapiens (Human), UniProt Q13315); test: Inhibition of cellular ATM activity: etoposide-stimulated KAP1 phosphorylation in U20S cells; format: cell-based; details: 100 μM etoposide, 60 min, read-out: ATM CELL IC50
[2] = target: Recombinant, full length human FLAG-tagged ATM (Homo sapiens (Human), UniProt Q13315); test: ATM ELISA for p53 S15 phosphorylation; format: biochemical; details: 0.75 nM ATM, 25 nM p53, 10 μM ATP, 30 min at 20° C.; read-out: ATM BIO IC50
Sequence of Recombinant, full length human FLAG-tagged ATM (Q13315 whole entry): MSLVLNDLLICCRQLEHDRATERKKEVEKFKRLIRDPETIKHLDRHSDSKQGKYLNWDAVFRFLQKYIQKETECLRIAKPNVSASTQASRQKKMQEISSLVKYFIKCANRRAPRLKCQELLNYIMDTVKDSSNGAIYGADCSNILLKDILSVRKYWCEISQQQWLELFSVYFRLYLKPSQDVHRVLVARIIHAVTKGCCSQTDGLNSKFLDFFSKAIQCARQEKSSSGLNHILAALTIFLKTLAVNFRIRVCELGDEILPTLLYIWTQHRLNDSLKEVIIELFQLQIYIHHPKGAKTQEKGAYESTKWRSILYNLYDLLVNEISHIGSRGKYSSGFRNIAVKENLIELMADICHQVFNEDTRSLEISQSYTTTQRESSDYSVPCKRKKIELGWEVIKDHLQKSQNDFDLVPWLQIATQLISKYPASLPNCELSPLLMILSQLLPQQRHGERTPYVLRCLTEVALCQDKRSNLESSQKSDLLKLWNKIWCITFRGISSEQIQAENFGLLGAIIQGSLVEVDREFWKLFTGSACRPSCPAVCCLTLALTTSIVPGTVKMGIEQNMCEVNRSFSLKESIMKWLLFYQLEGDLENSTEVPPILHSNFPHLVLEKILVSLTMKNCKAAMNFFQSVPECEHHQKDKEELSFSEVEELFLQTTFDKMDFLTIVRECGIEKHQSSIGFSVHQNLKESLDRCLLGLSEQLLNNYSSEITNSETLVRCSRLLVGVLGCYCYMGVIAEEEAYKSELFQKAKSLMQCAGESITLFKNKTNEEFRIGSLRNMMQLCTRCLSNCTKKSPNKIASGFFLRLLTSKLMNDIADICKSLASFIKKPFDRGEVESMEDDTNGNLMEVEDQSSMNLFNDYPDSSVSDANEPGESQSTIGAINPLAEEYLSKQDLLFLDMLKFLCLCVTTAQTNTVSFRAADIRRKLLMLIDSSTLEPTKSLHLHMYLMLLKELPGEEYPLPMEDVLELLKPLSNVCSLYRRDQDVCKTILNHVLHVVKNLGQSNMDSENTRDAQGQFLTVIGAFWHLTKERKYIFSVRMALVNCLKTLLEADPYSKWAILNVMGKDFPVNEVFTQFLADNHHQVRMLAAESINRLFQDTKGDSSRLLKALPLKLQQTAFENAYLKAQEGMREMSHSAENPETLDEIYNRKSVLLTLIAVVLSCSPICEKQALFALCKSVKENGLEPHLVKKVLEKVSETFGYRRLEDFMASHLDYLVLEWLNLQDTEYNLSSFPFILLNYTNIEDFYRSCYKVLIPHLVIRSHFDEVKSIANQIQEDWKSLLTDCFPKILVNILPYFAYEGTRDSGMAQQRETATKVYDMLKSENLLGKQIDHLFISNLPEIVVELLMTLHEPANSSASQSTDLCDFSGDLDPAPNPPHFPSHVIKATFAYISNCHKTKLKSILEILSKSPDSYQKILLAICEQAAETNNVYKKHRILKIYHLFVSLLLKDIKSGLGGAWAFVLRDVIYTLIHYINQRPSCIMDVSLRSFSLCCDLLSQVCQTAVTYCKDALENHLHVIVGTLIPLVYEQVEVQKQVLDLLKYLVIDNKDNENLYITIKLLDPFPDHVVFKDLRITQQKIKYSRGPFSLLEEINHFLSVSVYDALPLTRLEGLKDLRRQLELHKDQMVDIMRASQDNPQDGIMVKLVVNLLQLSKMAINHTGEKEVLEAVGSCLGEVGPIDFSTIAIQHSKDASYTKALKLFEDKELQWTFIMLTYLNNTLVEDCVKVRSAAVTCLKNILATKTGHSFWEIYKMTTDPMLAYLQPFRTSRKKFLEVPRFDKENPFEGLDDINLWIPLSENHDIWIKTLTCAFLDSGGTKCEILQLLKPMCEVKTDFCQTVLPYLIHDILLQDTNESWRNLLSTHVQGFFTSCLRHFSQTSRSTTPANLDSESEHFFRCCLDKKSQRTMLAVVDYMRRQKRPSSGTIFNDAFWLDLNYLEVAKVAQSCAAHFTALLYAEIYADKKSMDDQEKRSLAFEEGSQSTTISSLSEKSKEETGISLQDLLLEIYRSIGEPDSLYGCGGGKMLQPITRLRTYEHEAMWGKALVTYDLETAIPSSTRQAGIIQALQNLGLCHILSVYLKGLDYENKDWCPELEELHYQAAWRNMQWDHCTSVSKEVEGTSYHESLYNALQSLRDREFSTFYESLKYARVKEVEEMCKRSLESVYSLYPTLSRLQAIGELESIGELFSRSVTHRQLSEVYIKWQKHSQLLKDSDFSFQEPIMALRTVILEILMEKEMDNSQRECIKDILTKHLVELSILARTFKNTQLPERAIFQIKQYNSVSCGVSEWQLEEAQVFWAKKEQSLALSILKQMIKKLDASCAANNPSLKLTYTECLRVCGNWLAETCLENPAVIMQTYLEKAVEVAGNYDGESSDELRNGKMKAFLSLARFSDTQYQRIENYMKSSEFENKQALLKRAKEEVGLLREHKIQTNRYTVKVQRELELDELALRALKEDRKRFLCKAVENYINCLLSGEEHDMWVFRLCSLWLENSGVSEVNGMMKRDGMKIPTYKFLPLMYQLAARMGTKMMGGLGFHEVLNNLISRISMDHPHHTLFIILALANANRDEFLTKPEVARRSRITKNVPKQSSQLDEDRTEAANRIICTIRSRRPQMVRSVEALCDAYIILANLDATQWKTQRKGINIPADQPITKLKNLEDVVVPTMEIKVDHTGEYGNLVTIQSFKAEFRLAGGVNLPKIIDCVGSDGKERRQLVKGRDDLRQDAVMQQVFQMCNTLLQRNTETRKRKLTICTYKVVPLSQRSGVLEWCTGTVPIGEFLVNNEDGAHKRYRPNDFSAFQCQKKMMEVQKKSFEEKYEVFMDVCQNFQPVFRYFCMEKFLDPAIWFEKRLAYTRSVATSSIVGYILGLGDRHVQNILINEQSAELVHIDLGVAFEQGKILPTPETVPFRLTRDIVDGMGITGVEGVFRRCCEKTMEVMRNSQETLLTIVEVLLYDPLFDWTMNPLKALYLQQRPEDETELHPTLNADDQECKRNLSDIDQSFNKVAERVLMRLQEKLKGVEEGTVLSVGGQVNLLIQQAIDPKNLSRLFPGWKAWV
Method in brief: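 ELISA of p53 S15 phosphorylation by 0.75 nM full-length FLAG-ATM, with 25 nM myc-p53 and 10 μM ATP in HEPES pH 7.5 with Mg/Mn, 30 min at 20° C. Reactions were EDTA-stopped, captured on anti-myc and detected with anti-pS15/HRP-TMB at 450 nm.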

Sequence of cellular ATM activity (Q13315 whole entry): as above

IC50 [1]	IC50 [2]	Structure (SMILES)
0.627 µM	0.0349 µM	C[C@@H]1CN(c2cc(=O)[nH]c(N3CCC[C@@H]3Cc3ccc(F)cc3)n2)CCO1 [Example 281, 2-[(2R)-2-[(4-fluorophenyl)methyl]pyrrolidin-1-yl]-4-[(2R)-2-methylmorpholin-4-yl]-1H-pyrimidin-6-one]
1.02 µM	0.0246 µM	C[C@@H]1CN(c2cc(=O)[nH]c(N3CCCCC[C@@H]3Cc3cccs3)n2)CCO1 [Example 286, 6-((R)-2-methylmorpholino)-2-((R)-2-(thiophen-2-ylmethyl)azepan-1-yl)pyrimidin-4(3H)-one]
0.423 µM	0.0209 µM	C[C@@H]1CN(c2cc(=O)[nH]c(N3CC[C@@H](C)[C@@H]3Cc3ccccc3)n2)CCO1 [Example 294, 2-((2S,3R)-2-benzyl-3-methylpyrrolidin-1-yl)-6-((R)-2-methylmorpholino)pyrimidin-4(3H)-one]
1.85 µM	0.0405 µM	COc1ccccc1C[C@H]1[C@H](C)CCN1c1nc(N2CCO[C@H](C)C2)cc(=O)[nH]1 [Example 296, 2-((2S,3R)-2-(2-methoxybenzyl)-3-methylpyrrolidin-1-yl)-6-((R)-2-methylmorpholino)pyrimidin-4(3H)-one]
0.586 µM	0.0937 µM	C[C@@H]1CN(c2cc(=O)[nH]c(N3CCCCC[C@@H]3Cc3cccc(F)c3F)n2)CCO1 [Example 300, 2-((R)-2-(2,3-difluorobenzyl)azepan-1-yl)-6-((R)-2-methylmorpholino)pyrimidin-4(3H)-one]
0.957 µM	0.0192 µM	C[C@@H]1CN(c2cc(=O)[nH]c(N3CCCCC[C@@H]3Cc3ccc(F)cc3)n2)CCO1 [Example 304, 2-((R)-2-(4-fluorobenzyl)azepan-1-yl)-6-((R)-2-methylmorpholino)pyrimidin-4(3H)-one]
0.569 µM	0.039 µM	C[C@@H]1CN(c2cc(=O)[nH]c(N3CCCCC[C@@H]3Cc3cccc4c3OCC4)n2)CCO1 [Example 305, 2-((R)-2-((2,3-dihydrobenzofuran-7-yl)methyl)azepan-1-yl)-6-((R)-2-methylmorpholino)pyrimidin-4(3H)-one]
0.56 µM	0.0143 µM	COCCOc1cccc(C[C@H]2CCCCCN2c2nc(N3CCO[C@H](C)C3)cc(=O)[nH]2)c1 [Example 308, 2-((R)-2-(3-(2-methoxyethoxy)benzyl)azepan-1-yl)-6-((R)-2-methylmorpholino)pyrimidin-4(3H)-one]
0.256 µM	0.0062 µM	COCCOc1ccc(C[C@H]2CCCCCN2c2nc(N3CCO[C@H](C)C3)cc(=O)[nH]2)cc1 [Example 309, 2-((R)-2-(4-(2-methoxyethoxy)benzyl)azepan-1-yl)-6-((R)-2-methylmorpholino)pyrimidin-4(3H)-one]
1.74 µM	0.0447 µM	C[C@H]1CCCN(c2nc(N3CCO[C@H](C)C3)cc(=O)[nH]2)[C@@H](Cc2ccccc2)C1 [Example 312, 2-((2R,4S)-2-benzyl-4-methylazepan-1-yl)-6-((R)-2-methylmorpholino)pyrimidin-4(3H)-one]
1.66 µM	0.0423 µM	C[C@H]1CCCN(c2nc(N3CCO[C@H](C)C3)cc(=O)[nH]2)[C@@H](Cc2ccc(F)cc2)C1 [Example 313, 2-((2R,4S)-2-(4-fluorobenzyl)-4-methylazepan-1-yl)-6-((R)-2-methylmorpholino)pyrimidin-4(3H)-one]
0.813 µM	0.0164 µM	C[C@@H]1CN(c2cc(=O)[nH]c(N3CCCCC[C@@H]3Cc3ccsc3)n2)CCO1 [Example 315, 6-((R)-2-methylmorpholino)-2-((R)-2-(thiophen-3-ylmethyl)azepan-1-yl)pyrimidin-4(3H)-one]
0.857 µM	0.0461 µM	C[C@@H]1CN(c2cc(=O)[nH]c(N3CCCCC[C@@H]3Cc3ccccc3F)n2)CCO1 [Example 317, 2-((R)-2-(2-fluorobenzyl)azepan-1-yl)-6-((R)-2-methylmorpholino)pyrimidin-4(3H)-one]
0.538 µM	0.0053 µM	C[C@@H]1CN(c2cc(=O)[nH]c(N3CC[C@@H](F)[C@@H]3Cc3ccccc3)n2)CCO1 [Example 319, 2-((2S,3R)-2-benzyl-3-fluoropyrrolidin-1-yl)-6-((R)-2-methylmorpholino)pyrimidin-4(3H)-one]
2.84 µM	0.0332 µM	C[C@@H]1CN(c2cc(=O)[nH]c(N3CCC(F)(F)[C@@H]3Cc3ccccc3)n2)CCO1 [Example 322, 2-((S)-2-benzyl-3,3-difluoropyrrolidin-1-yl)-6-((R)-2-methylmorpholino)pyrimidin-4(3H)-one]
1.68 µM	0.0054 µM	COc1ccccc1C[C@H]1[C@@H](F)CCN1c1nc(N2CCO[C@H](C)C2)cc(=O)[nH]1 [Example 324]
0.528 µM	0.0237 µM	C[C@@H]1CN(c2cc(=O)[nH]c(N3CCC[C@@H]3Cc3ccccc3)n2)C[C@@H](C)O1 [Example 347, 2-((R)-2-benzylpyrrolidin-1-yl)-6-((2R,6R)-2,6-dimethylmorpholino)pyrimidin-4(3H)-one]
0.345 µM	0.0075 µM	C[C@@H]1CN(c2cc(=O)[nH]c(N3CCCCC[C@@H]3Cc3ccccc3)n2)C[C@@H](C)O1 [Example 349, 2-((R)-2-benzylazepan-1-yl)-6-((2R,6R)-2,6-dimethylmorpholino)pyrimidin-4(3H)-one]

Structure (SMILES)	IC50 [1]	IC50 [2]
C[C@@H]1CN(c2cc(=O)[nH]c(N3C[C@H]4C[C@H]4[C@@H]3Cc3ccccc3)n2)CCO1 [Example 291, 2-((1R,2S,5S)-2-benzyl-3-azabicyclo[3.1.0]hexan-3-yl)-6-((R)-2-methylmorpholino)pyrimidin-4(3H)-one]	0.562 µM	0.0111 µM
C[C@@H]1CN(c2cc(=O)[nH]c(N3C[C@@H]4C[C@@H]4[C@@H]3Cc3ccccc3)n2)CCO1 [Example 292, 2-((1S,2S,5R)-2-benzyl-3-azabicyclo[3.1.0]hexan-3-yl)-6-((R)-2-methylmorpholino)pyrimidin-4(3H)-one]	1.31 µM	0.0055 µM
